Values of other authors, collected in patent US11634860B2, “Articles and methods for dispensing metal ions into laundry systems” (Applied Silver, Inc., priority 2016, dated 2023).

Conditions: silver salt formed with the binder's counterion

Solubility Limit [g/100 mL] | SMILES
6.21E−16 | [Ag+].[Ag+].[S-2] [Ag2S]
1.60E−04 | [Cl][Ag] [AgCl]
100 | [Ag+].[F-] [AgF]
